Reference: patent publication US20260138976A1 (Hoffmann-La Roche Inc., priority 2022, published 2026)
pEC50: −log10 of the molar value.

Test system: primary human T-cells
Assay: IL2 secretion measurements (24 h, CD3-stimulated T-cells, PBS counter screen)
Format: cell-based
Conditions: for Emax IL2 (% activation): CD3 condition, normalised to DMSO (neutral) and 20 μM reference compound A1 = 100%; for pEC50: Homo sapiens, T-cell, CD3-stimulated primary human T-cells, IL2 secretion, fitted sigmoidal curve, read-out: Tcell IL2 CD3 EC50
In short: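 IL-2 secretion was measured by ProQuantum or ELISA after 24 h culture of expanded human T-cells with compound, on CD3-antibody-coated plates or PBS counter-screen plates. Dosing used 5–6 points from a 20 or 10 μM final top at 3.333-fold steps in 0.2% DMSO. EC50/Emax were scaled between DMSO and 20 μM reference A1.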

| SMILES | Emax IL2 (% activation) | pEC50 |
| --- | --- | --- |
| CC(C)(C#N)c1nnc(-c2ccc3c(c2)N(Cc2ccc(-c4ccc(OC(F)(F)F)cc4)nc2)C(=O)[C@@H](N)CS3(=O)=O)o1 [Example 119, 2-[5-[(3R)-3-amino-1,1,4-trioxo-5-[[6-[4-(trifluoromethoxy)phenyl]-3-pyridyl]methyl]-2,3-dihydro-1λ^6,5-benzothiazepin-7-yl]-1,3,4-oxadiazol-2-yl]-2-methyl-propanenitrile] | 102 | 5.89 |
| CC(C)(C#N)c1nnc(-c2ccc3c(c2)N(Cc2ccc(-c4cnn(C(F)(F)F)c4)cc2)C(=O)[C@@H](N)CS3(=O)=O)o1 [Example 115, 2-[5-[(3R)-3-amino-1,1,4-trioxo-5-[[4-[1-(trifluoromethyl)pyrazol-4-yl]phenyl]methyl]-2,3-dihydro-1λ^6,5-benzothiazepin-7-yl]-1,3,4-oxadiazol-2-yl]-2-methyl-propanenitrile] | 112 | 6.30 |
| N[C@H]1CS(=O)(=O)c2cc(F)c(-c3noc(N4CCOC(F)(F)C4)n3)cc2N(Cc2ccc(-c3noc(C(F)(F)F)n3)nc2)C1=O [Example 12, (3R)-3-amino-7-[5-(2,2-difluoromorpholin-4-yl)-1,2,4-oxadiazol-3-yl]-8-fluoro-1,1-dioxo-5-[[6-[5-(trifluoromethyl)-1,2,4-oxadiazol-3-yl]-3-pyridyl]methyl]-2,3-dihydro-1λ^6,5-benzothiazepin-4-one] | 167 | 5.52 |
| COc1ccc(-c2ccc(CN3C(=O)[C@@H](N)CS(=O)(=O)c4ccc(-c5nnc(C(C)(C)C#N)o5)cc43)cc2)nc1 [Example 125] | 97 | 5.37 |
| N[C@H]1CS(=O)(=O)c2ccc(-c3nnc(N4CCC(F)(F)CC4)o3)cc2N(Cc2ccc(-n3ccc(C(F)(F)F)n3)cc2)C1=O [Example 162, (3R)-3-amino-7-[5-(4,4-difluoro-1-piperidyl)-1,3,4-oxadiazol-2-yl]-1,1-dioxo-5-[[4-[3-(trifluoromethyl)pyrazol-1-yl]phenyl]methyl]-2,3-dihydro-1λ^6,5-benzothiazepin-4-one] | 185 | 5.85 |
| CC(C)(C#N)c1nnc(-c2ccc3c(c2)N(Cc2ccc(-c4cc(OC(F)(F)F)ccn4)cc2)C(=O)[C@@H](N)CS3(=O)=O)o1 [Example 126, 2-[5-[(3R)-3-amino-1,1,4-trioxo-5-[[4-[4-(trifluoromethoxy)-2-pyridyl]phenyl]methyl]-2,3-dihydro-1λ^6,5-benzothiazepin-7-yl]-1,3,4-oxadiazol-2-yl]-2-methyl-propanenitrile] | 254 | 5.67 |
| CC1(Nc2nnc(-c3cc4c(cc3F)S(=O)(=O)C[C@H](N)C(=O)N4Cc3ccc(-c4noc(C(F)(F)F)n4)cc3)o2)CC(F)(F)C1 [Example 3, (3R)-3-amino-7-[5-[(3,3-difluoro-1-methyl-cyclobutyl)amino]-1,3,4-oxadiazol-2-yl]-8-fluoro-1,1-dioxo-5-[[4-[5-(trifluoromethyl)-1,2,4-oxadiazol-3-yl]phenyl]methyl]-2,3-dihydro-1λ^6,5-benzothiazepin-4-one] | 594 | 6.67 |
| CC(C)(C#N)c1nnc(-c2ccc3c(c2)N(Cc2ccc(-c4ccc(OC(F)(F)C(F)(F)F)cn4)cc2)C(=O)[C@@H](N)CS3(=O)=O)o1 [Example 129, 2-[5-[(3R)-3-amino-1,1,4-trioxo-5-[[4-[5-(1,1,2,2,2-pentafluoroethoxy)-2-pyridyl]phenyl]methyl]-2,3-dihydro-1λ^6,5-benzothiazepin-7-yl]-1,3,4-oxadiazol-2-yl]-2-methyl-propanenitrile] | 187 | 6.26 |
| N[C@H]1CS(=O)(=O)c2cc(F)c(-c3noc(C4(N)COC4)n3)cc2N(Cc2ccc(-c3ccc(C(F)(F)F)cn3)cc2)C1=O [Example 10, (3R)-3-amino-7-[5-(3-aminooxetan-3-yl)-1,2,4-oxadiazol-3-yl]-8-fluoro-1,1-dioxo-5-[[4-[5-(trifluoromethyl)-2-pyridyl]phenyl]methyl]-2,3-dihydro-1λ^6,5-benzothiazepin-4-one] | 123 | 5.03 |
| Cn1nc(C(F)(F)F)cc1-c1ccc(CN2C(=O)[C@@H](N)CS(=O)(=O)c3ccc(-c4nnc(C(C)(C)C)o4)cc32)cc1 [Example 92] | 157 | 5.70 |
| CC(C)(C#N)c1nnc(-c2ccc3c(c2)N(Cc2ccc(-c4ccc(C(F)(F)F)nc4)cc2)C(=O)[C@@H](N)CS3(=O)=O)o1 [Example 113, 2-[5-[(3R)-3-amino-1,1,4-trioxo-5-[[4-[6-(trifluoromethyl)-3-pyridyl]phenyl]methyl]-2,3-dihydro-1λ^6,5-benzothiazepin-7-yl]-1,3,4-oxadiazol-2-yl]-2-methyl-propanenitrile] | 85 | 5.88 |
| N[C@H]1CS(=O)(=O)c2cc(F)c(-c3nnc(N4CCOC5(CC5)C4)o3)cc2N(Cc2ccc(-c3noc(C(F)(F)F)n3)cc2)C1=O [Example 4, (3R)-3-amino-8-fluoro-7-[5-(4-oxa-7-azaspiro[2.5]octan-7-yl)-1,3,4-oxadiazol-2-yl]-1,1-dioxo-5-[[4-[5-(trifluoromethyl)-1,2,4-oxadiazol-3-yl]phenyl]methyl]-2,3-dihydro-1λ^6,5-benzothiazepin-4-one] | 220 | 6.68 |
| CC(C)(c1nnc(-c2ccc3c(c2)N(Cc2ccc(-c4ccc(OC(F)(F)F)cn4)cc2)C(=O)[C@@H](N)CS3(=O)=O)o1)C(F)(F)F [Example 165, (3R)-3-amino-1,1-dioxo-7-[5-(2,2,2-trifluoro-1,1-dimethyl-ethyl)-1,3,4-oxadiazol-2-yl]-5-[[4-[5-(trifluoromethoxy)-2-pyridyl]phenyl]methyl]-2,3-dihydro-1λ^6,5-benzothiazepin-4-one] | 123 | 5.88 |
| C[C@@](N)(c1nnc(-c2ccc3c(c2)N(Cc2ccc(-c4ccc(C(F)(F)F)cn4)cc2)C(=O)[C@@H](N)CS3(=O)=O)o1)C(F)(F)F [Example 154, (3R)-3-amino-7-[5-[(1R)-1-amino-2,2,2-trifluoro-1-methyl-ethyl]-1,3,4-oxadiazol-2-yl]-1,1-dioxo-5-[[4-[5-(trifluoromethyl)-2-pyridyl]phenyl]methyl]-2,3-dihydro-1λ^6,5-benzothiazepin-4-one] | 127 | 6.00 |
| Cc1cc(C)n(-c2ccc(CN3C(=O)[C@@H](N)CS(=O)(=O)c4ccc(-c5nnc(C(C)(C)C)o5)cc43)cc2)n1 [Example 22, (3R)-3-amino-7-(5-tert-butyl-1,3,4-oxadiazol-2-yl)-5-[[4-(3,5-dimethylpyrazol-1-yl)phenyl]methyl]-1,1-dioxo-2,3-dihydro-1λ^6,5-benzothiazepin-4-one] | 75 | 5.34 |
| CC(O)(c1nnc(-c2ccc3c(c2)N(Cc2ccc(-c4noc(C5CC5)n4)cc2)C(=O)[C@@H](N)CS3(=O)=O)o1)C(F)(F)F (some centres unmarked) [Example 170] | 79 | 5.07 |
| NC(c1nnc(-c2ccc3c(c2)N(Cc2ccc(-c4noc(C(F)(F)F)n4)cc2)C(=O)[C@@H](N)CS3(=O)=O)o1)C(F)(F)F (some centres unmarked) [Example 94] | 76 | 5.57 |
| N[C@H]1CS(=O)(=O)c2cc(F)c(-c3noc(N4CCOC(F)(F)C4)n3)cc2N(Cc2ccc(-c3ccc(C(F)(F)F)cc3)nc2)C1=O [Example 13, (3R)-3-amino-7-[5-(2,2-difluoromorpholin-4-yl)-1,2,4-oxadiazol-3-yl]-8-fluoro-1,1-dioxo-5-[[6-[4-(trifluoromethyl)phenyl]-3-pyridyl]methyl]-2,3-dihydro-1λ^6,5-benzothiazepin-4-one] | 26 | < 5.00 |
| N[C@H]1CS(=O)(=O)c2cc(F)c(-c3noc(C4(N)COC4)n3)cc2N(Cc2ccc(-c3noc(C(F)(F)F)n3)cc2)C1=O [Example 9, (3R)-3-amino-7-[5-(3-aminooxetan-3-yl)-1,2,4-oxadiazol-3-yl]-8-fluoro-1,1-dioxo-5-[[4-[5-(trifluoromethyl)-1,2,4-oxadiazol-3-yl]phenyl]methyl]-2,3-dihydro-1λ^6,5-benzothiazepin-4-one] | 558 | 5.96 |
| COc1ccc(-c2ccc(CN3C(=O)[C@@H](N)CS(=O)(=O)c4ccc(-c5nnc(C6(F)CCCN(C)C6)o5)cc43)cc2)cc1 (stereo partly drawn) [Example 50, (3R)-3-amino-7-[5-(3-fluoro-1-methyl-3-piperidyl)-1,3,4-oxadiazol-2-yl]-5-[[4-(4-methoxyphenyl)phenyl]methyl]-1,1-dioxo-2,3-dihydro-1λ^6,5-benzothiazepin-4-one] | 119 | 5.44 |
| CC(C)(CC#N)c1nnc(-c2ccc3c(c2)N(Cc2ccc(-c4ccc(OC(F)(F)F)cn4)cc2)C(=O)[C@@H](N)CS3(=O)=O)o1 [Example 175, 3-[5-[(3R)-3-amino-1,1,4-trioxo-5-[[4-[5-(trifluoromethoxy)-2-pyridyl]phenyl]methyl]-2,3-dihydro-1λ^6,5-benzothiazepin-7-yl]-1,3,4-oxadiazol-2-yl]-3-methyl-butanenitrile] | 52 | < 5.00 |
| CCOC(F)(c1nnc(-c2ccc3c(c2)N(Cc2ccc(-c4noc(C(F)(F)F)n4)cc2)C(=O)[C@@H](N)CS3(=O)=O)o1)C(F)(F)F (stereo partly drawn) [Example 64, (3R)-3-amino-7-[5-(1-ethoxy-1,2,2,2-tetrafluoro-ethyl)-1,3,4-oxadiazol-2-yl]-1,1-dioxo-5-[[4-[5-(trifluoromethyl)-1,2,4-oxadiazol-3-yl]phenyl]methyl]-2,3-dihydro-1λ^6,5-benzothiazepin-4-one] | 543 | 6.05 |
